Source: ChEMBL document CHEMBL4507291 (2021)

Tests used:
[1] = species on record: Rattus norvegicus; assay: Inhibition of Glutamate, NMDA, Phencyclidine at 10 µM in the Eurofins-Panlabs radioligand binding assay (Eurofins_assay_233000); format: protein-complex assay; conditions: Compound concentration 10.0 uM
[2] = target: Prostaglandin G/H synthase 1 (Homo sapiens) (UniProt P23219); assay: Inhibition of Cyclooxygenase COX-1 at compound concentration of 10.0 uM in the Eurofins-Panlabs enzyme assay (Eurofins_assay_116020); conditions: Compound concentration 10.0 uM
[3] = target: T1, Alpha-2C adrenergic receptor (Homo sapiens) (UniProt P18825); assay: Adrenergic alpha2C Eurofins-Panlabs radioligand binding assay; design: ligand concentration 1 nM, non-specific ligand with concentration 10 µM WB-4101, incubation time 60 min, incubation temperature 25 °C; conditions: Compound concentration 10.0 uM
T1 sequence (whole entry): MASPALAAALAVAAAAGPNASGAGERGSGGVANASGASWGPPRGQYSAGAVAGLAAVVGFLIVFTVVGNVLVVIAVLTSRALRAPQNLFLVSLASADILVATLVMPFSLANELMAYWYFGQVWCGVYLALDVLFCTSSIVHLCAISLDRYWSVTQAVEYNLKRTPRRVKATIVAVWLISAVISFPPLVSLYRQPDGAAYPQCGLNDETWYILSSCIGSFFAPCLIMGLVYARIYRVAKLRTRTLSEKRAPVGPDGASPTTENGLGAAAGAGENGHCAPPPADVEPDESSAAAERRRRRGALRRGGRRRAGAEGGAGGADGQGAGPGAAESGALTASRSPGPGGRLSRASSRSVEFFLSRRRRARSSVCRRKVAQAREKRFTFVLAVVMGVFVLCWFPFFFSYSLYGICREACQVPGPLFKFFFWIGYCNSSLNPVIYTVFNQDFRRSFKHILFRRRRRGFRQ

[4] = target: Cholecystokinin receptor type A (Homo sapiens) (UniProt P32238); assay: Inhibition of Cholecystokinin CCK1 (CCKA) at 10 µM in the Eurofins-Panlabs radioligand binding assay (Eurofins_assay_218020); conditions: Compound concentration 10.0 uM
[5] = target: Melanocortin receptor 3 (Homo sapiens) (UniProt P41968); assay: Inhibition of Melanocortin MC3 at 10 µM in the Eurofins-Panlabs radioligand binding assay (Eurofins_assay_251300); design: ligand concentration 0.035 nM; conditions: Compound concentration 10.0 uM
[6] = target: T2, Muscarinic acetylcholine receptor M5 (Homo sapiens) (UniProt P08912); assay: Inhibition of Muscarinic M5 at 10 µM in the Eurofins-Panlabs radioligand binding assay (Eurofins_assay_253010); design: ligand concentration 0.8 nM; conditions: Compound concentration 10.0 uM
T2 sequence (whole entry): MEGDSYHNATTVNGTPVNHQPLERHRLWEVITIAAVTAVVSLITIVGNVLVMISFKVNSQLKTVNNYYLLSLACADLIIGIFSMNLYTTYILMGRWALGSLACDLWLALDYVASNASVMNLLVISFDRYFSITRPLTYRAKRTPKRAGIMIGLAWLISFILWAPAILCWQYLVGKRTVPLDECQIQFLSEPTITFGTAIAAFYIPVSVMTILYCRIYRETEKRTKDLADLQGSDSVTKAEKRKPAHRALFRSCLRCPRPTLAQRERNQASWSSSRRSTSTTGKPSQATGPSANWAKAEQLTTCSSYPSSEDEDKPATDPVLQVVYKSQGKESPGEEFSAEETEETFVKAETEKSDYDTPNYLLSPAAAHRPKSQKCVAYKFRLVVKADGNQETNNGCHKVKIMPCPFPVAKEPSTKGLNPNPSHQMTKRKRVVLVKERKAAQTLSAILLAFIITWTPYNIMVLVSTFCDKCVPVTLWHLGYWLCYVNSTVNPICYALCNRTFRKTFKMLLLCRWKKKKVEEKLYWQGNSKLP

[7] = system: Tyrosine-protein kinase ABL1 (Homo sapiens), P00519 [T315I]; assay: ABL1 T315I Kinase screen; conditions: Compound concentration 1.0 uM
[8] = target: AMP-activated protein kinase (AMPK) alpha-1/beta-1/gamma-1 (Homo sapiens) (UniProt P54619+Q9Y478+Q13131); assay: AMPK A1/B1/G1 Kinase screen; format: protein-complex assay; conditions: Compound concentration 1.0 uM
[9] = target: AMPK alpha2/beta1/gamma1 (Homo sapiens) (UniProt P54646+P54619+Q9Y478); assay: AMPK A2/B1/G1 Kinase screen; format: protein-complex assay; conditions: Compound concentration 1.0 uM
[10] = target: Calcium/calmodulin-dependent protein kinase type II subunit beta (Homo sapiens) (UniProt Q13554); assay: CAMK2B (CaMKII beta) Kinase screen; conditions: Compound concentration 1.0 uM
[11] = target: Cyclin-dependent kinase 5/CDK5 activator 1 (Homo sapiens) (UniProt Q00535+Q15078); assay: CDK5/p35 Kinase screen; format: protein-complex assay; conditions: Compound concentration 1.0 uM
[12] = target: Casein kinase II subunit alpha' (Homo sapiens) (UniProt P19784); assay: CSNK2A2 (CK2 alpha 2) Kinase screen; conditions: Compound concentration 1.0 uM
[13] = target: Tyrosine-protein kinase Fer (Homo sapiens) (UniProt P16591); assay: FER Kinase screen; conditions: Compound concentration 1.0 uM
[14] = target: Fibroblast growth factor receptor 1 (Homo sapiens) (UniProt P11362); assay: FGFR1 Kinase screen; conditions: Compound concentration 1.0 uM
[15] = target: G protein-coupled receptor kinase 4 (Homo sapiens) (UniProt P32298); assay: GRK4 Kinase screen; conditions: Compound concentration 1.0 uM
[16] = target: Tyrosine-protein kinase JAK2 (Homo sapiens) (UniProt O60674); assay: JAK2 Kinase screen; conditions: Compound concentration 1.0 uM
[17] = target: Mitogen-activated protein kinase kinase kinase 10 (Homo sapiens) (UniProt Q02779); assay: MAP3K10 (MLK2) Kinase screen; conditions: Compound concentration 1.0 uM
[18] = target: Mitogen-activated protein kinase 14 (Homo sapiens) (UniProt Q16539); assay: MAPK14 (p38 alpha) Direct Kinase screen; conditions: Compound concentration 1.0 uM
[19] = target: Mitogen-activated protein kinase 8 (Homo sapiens) (UniProt P45983); assay: MAPK8 (JNK1) Kinase screen; conditions: Compound concentration 1.0 uM
[20] = target: Serine/threonine-protein kinase MARK2 (Homo sapiens) (UniProt Q7KZI7); assay: MARK2 Kinase screen; conditions: Compound concentration 1.0 uM
[21] = target: Myosin light chain kinase 2, skeletal/cardiac muscle (Homo sapiens) (UniProt Q9H1R3); assay: MYLK2 (skMLCK) Kinase screen; conditions: Compound concentration 1.0 uM
[22] = target: High affinity nerve growth factor receptor (Homo sapiens) (UniProt P04629); assay: NTRK1 (TRKA) Kinase screen; conditions: Compound concentration 1.0 uM
[23] = system: Platelet-derived growth factor receptor alpha (Homo sapiens), P16234 [V561D]; assay: PDGFRA V561D Kinase screen; conditions: Compound concentration 1.0 uM
[24] = target: Phosphatidylinositol 4-kinase alpha (Homo sapiens) (UniProt P42356); assay: PI4KA (PI4K alpha) Kinase screen; conditions: Compound concentration 1.0 uM
[25] = target: Protein kinase C beta type (Homo sapiens) (UniProt P05771); assay: PRKCB1 (PKC beta I) Kinase screen; conditions: Compound concentration 1.0 uM
[26] = target: Protein kinase C gamma type (Homo sapiens) (UniProt P05129); assay: PRKCG (PKC gamma) Kinase screen; conditions: Compound concentration 1.0 uM
[27] = target: Serine/threonine-protein kinase 16 (Homo sapiens) (UniProt O75716); assay: STK16 (PKL12) Kinase screen; conditions: Compound concentration 1.0 uM
[28] = target: Prostaglandin E2 receptor EP1 subtype (Homo sapiens) (UniProt P34995); assay: Prostanoid EP1 Eurofins-Panlabs radioligand binding assay; design: ligand concentration 1 nM; conditions: Compound concentration 10.0 uM
[29] = target: Glutamate NMDA receptor (Rattus norvegicus) (UniProt P35439+Q00959+Q00960+Q00961+Q62645+Q8VHN2+Q9R1M7); conditions: Compound concentration 10.0 uM
[30] = target: Kappa-type opioid receptor (Homo sapiens) (UniProt P41145); conditions: Compound concentration 10.0 uM

Measured: inhibition

Sequence of Protein kinase C beta type (Homo sapiens) (P05771 2-671 limits assumed): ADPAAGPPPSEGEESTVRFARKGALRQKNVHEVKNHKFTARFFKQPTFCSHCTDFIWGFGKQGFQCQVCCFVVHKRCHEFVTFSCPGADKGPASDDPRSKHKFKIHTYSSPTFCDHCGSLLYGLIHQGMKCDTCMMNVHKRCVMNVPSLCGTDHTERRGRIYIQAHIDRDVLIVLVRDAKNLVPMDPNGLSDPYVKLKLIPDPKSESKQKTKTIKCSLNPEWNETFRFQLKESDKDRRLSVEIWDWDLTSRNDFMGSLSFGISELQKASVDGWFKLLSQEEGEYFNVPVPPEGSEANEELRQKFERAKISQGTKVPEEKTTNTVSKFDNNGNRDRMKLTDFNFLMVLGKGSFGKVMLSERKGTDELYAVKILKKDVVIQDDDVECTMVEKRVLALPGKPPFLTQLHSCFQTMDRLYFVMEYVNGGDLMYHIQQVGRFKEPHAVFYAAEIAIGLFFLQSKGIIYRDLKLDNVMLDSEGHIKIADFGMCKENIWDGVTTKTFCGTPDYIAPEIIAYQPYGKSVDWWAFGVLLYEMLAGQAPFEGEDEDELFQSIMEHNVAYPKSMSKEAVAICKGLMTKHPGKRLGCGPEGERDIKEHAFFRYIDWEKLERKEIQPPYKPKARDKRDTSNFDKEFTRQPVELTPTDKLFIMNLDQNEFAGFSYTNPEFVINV
Sequence of Calcium/calmodulin-dependent protein kinase type II subunit beta (Homo sapiens) (Q13554 whole entry): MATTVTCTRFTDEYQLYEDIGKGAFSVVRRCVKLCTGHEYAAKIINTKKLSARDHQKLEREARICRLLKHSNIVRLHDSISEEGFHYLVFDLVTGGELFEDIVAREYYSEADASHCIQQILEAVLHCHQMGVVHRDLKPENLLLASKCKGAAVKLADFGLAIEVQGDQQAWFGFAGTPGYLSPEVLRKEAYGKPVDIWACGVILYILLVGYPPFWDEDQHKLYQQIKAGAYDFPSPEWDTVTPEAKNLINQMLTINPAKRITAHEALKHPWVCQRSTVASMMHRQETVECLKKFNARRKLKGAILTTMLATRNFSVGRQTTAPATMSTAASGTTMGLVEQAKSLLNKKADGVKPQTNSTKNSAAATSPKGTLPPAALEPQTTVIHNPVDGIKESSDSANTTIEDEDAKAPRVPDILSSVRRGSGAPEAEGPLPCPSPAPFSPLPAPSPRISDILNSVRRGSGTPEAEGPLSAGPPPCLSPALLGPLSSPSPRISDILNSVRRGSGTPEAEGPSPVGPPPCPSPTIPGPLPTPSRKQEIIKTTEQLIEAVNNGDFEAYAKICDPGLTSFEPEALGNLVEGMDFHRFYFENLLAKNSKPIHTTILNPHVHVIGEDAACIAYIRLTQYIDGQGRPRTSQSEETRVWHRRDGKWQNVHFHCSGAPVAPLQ
Sequence of Cyclin-dependent kinase 5/CDK5 activator 1 (Homo sapiens) (Q00535 whole entry): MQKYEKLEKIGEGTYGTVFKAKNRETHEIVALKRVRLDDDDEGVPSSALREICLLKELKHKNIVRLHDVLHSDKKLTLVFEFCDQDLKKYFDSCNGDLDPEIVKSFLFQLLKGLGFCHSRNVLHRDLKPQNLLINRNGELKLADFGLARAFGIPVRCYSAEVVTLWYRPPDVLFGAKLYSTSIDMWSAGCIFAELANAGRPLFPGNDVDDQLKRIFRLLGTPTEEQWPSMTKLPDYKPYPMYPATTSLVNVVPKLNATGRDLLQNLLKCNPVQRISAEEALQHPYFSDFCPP
Sequence of Cyclin-dependent kinase 5/CDK5 activator 1 (Homo sapiens) (Q15078 99-307 partner limits assumed): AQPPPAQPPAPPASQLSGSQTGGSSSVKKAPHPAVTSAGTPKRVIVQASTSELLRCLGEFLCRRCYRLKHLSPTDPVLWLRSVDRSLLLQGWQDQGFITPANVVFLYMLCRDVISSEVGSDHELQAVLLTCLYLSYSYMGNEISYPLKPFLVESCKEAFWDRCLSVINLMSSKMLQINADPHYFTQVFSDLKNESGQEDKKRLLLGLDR
Sequence of Kappa-type opioid receptor (Homo sapiens) (P41145 whole entry): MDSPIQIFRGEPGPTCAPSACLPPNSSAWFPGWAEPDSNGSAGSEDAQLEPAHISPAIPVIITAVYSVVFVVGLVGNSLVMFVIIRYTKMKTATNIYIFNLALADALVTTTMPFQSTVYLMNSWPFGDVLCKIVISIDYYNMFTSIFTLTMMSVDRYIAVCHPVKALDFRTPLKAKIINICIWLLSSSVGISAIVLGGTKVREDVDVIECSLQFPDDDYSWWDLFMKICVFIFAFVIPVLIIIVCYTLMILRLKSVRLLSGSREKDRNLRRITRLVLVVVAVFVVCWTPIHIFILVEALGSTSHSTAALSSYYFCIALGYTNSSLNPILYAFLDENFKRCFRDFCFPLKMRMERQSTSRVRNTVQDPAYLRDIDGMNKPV
Sequence of Prostaglandin E2 receptor EP1 subtype (Homo sapiens) (P34995 whole entry): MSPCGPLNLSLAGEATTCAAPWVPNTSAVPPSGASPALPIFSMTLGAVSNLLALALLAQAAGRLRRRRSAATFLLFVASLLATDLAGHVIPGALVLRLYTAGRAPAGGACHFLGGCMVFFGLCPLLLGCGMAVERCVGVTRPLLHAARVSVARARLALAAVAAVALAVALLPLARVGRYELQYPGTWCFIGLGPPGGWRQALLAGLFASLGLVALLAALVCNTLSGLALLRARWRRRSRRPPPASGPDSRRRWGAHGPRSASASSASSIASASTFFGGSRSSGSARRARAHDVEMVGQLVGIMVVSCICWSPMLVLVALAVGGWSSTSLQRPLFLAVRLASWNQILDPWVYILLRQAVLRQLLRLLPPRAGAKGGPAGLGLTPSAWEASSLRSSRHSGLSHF
Sequence of Fibroblast growth factor receptor 1 (Homo sapiens) (P11362 22-822 limits assumed): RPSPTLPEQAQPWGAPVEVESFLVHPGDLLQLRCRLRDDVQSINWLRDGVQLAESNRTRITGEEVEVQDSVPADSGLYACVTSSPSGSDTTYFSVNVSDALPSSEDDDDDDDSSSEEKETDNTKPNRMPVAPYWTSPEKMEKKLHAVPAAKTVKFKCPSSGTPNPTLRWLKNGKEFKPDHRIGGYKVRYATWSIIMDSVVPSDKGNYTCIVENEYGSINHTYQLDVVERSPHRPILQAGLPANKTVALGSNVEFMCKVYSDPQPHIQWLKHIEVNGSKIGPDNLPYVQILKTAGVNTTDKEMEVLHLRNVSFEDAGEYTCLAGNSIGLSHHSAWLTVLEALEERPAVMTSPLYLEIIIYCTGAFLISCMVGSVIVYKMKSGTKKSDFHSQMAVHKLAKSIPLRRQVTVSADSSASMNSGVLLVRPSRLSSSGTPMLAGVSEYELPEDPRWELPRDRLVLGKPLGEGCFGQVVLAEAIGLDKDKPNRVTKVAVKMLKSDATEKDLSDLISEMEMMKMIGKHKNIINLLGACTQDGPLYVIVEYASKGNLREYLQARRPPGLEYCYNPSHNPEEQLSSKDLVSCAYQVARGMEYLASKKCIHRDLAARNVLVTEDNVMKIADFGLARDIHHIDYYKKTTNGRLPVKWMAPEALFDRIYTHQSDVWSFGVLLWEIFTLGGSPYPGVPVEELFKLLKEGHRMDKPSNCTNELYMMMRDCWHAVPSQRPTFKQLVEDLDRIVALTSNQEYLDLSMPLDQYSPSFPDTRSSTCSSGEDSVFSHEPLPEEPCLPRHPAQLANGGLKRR
Sequence of AMPK alpha2/beta1/gamma1 (Homo sapiens) (P54619 whole entry partner): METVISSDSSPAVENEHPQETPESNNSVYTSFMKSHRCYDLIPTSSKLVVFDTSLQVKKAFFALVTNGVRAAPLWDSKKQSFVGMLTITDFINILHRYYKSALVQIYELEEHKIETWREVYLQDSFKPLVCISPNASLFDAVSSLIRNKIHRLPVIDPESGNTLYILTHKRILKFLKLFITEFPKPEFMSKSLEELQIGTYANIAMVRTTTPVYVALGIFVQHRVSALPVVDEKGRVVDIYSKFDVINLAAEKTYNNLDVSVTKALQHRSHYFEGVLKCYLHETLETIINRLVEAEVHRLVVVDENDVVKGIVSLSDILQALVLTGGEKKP
Sequence of AMPK alpha2/beta1/gamma1 (Homo sapiens) (P54646 whole entry): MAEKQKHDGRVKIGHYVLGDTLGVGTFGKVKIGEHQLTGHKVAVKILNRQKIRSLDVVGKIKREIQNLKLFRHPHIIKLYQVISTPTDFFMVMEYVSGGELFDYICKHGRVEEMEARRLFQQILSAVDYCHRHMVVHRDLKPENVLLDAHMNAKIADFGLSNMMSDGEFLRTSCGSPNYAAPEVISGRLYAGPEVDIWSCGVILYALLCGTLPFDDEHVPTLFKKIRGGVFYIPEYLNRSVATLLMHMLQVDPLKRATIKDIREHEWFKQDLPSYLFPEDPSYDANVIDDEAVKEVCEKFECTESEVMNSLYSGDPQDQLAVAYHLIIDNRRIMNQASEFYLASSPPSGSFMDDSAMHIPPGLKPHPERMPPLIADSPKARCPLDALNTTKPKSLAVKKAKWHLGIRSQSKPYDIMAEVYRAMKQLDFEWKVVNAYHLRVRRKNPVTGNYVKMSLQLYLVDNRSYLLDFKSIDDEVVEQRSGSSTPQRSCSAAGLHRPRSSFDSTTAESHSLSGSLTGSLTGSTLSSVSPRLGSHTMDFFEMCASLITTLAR
Sequence of AMPK alpha2/beta1/gamma1 (Homo sapiens) (Q9Y478 2-270 partner limits assumed): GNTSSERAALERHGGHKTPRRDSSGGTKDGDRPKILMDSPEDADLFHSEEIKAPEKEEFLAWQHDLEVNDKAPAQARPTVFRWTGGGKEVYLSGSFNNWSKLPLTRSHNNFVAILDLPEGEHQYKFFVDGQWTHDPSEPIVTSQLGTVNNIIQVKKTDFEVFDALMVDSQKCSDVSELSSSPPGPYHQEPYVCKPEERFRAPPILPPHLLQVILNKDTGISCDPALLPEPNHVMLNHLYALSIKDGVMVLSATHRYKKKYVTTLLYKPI
Sequence of Serine/threonine-protein kinase 16 (Homo sapiens) (O75716 whole entry): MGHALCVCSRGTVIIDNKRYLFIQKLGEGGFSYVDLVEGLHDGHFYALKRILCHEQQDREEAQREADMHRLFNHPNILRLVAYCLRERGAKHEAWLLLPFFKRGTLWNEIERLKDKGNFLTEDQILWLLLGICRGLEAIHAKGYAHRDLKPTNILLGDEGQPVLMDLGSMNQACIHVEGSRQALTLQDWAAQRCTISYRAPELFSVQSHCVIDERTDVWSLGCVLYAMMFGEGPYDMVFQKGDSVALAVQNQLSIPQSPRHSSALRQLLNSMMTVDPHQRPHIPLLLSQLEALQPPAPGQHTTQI

C[C@@H]1CN(c2cc(-c3n[nH]c4ccc(OC5(C)CC5)cc34)ncn2)C[C@H](C)O1 [MLi-2]
inactive: [1] -1% | [2] 9% | [3] 14% | [4] -4% | [5] -2% | [6] -8% | [7] 9.34% | [8] -3.77% | [9] 5.68% | [10] 12.6% | [11] -0.531% | [12] 10.4% | [13] 26.7% | [14] 3.88% | [15] 6.02% | [16] 5.78% | [17] 0.659% | [18] 8.11% | [19] -0.139% | [20] 7.83% | [21] 1.42% | [22] 0.799% | [23] 8.06% | [24] 5.35% | [25] -7.69% | [26] 1.24% | [27] 2.58% | [28] 16% | [29] 4% | [30] 19%
